Data: patent US8691757B2 (Bristol-Myers Squibb Company, priority 2011, dated 2014)

What was measured:
[1] = system: HCV genotype 1b (Con1) replicon in HUH-7 cells; assay: HCV replicon luciferase reporter assay, genotype 1b; format: cell-based; details: Hepatitis C virus, 72 h, HCV genotype 1b replicon, 3 days incubation, Renilla luciferase
Text: An HCV replicon whole cell system was established as described by Lohmann V, Korner F, Koch J, Herian U, Theilmann L, Bartenschlager R., Science 285(5424):110-3 (1999) and modified to introduce a luciferase reporter, as first described by Krieger et al (Krieger N, Lohmann V, and Bartenschlager R, J. Virol. 75(10):4614-4624 (2001)). CDNA encoding a humanized form of the Renilla luciferase gene and a linker sequence fused directly to the 3′-end of the luciferase gene were introduced into the replicon construct using an Asc1 restriction site located in core, directly upstream of the neomycin marker gene. The adaptive mutation at position 1179 (serine to isoleucine) was also introduced (Blight K J, Kolykhalov, A A, Rice, C M, Science 290(5498):1972-1974). A stable cell line constitutively expressing this HCV replicon construct was generated by first linearizing plasmid DNAs with ScaI. RNA transcripts were synthesized in vitro using the T7 MegaScript transcription kit (Ambion, Austin, Tex.) according to manufacturer's directions. In vitro transcripts of the cDNA were transfected into the human hepatoma cell line, HUH-7. […] Resulting cell lines were characterized for positive and negative strand RNA production and protein production over time. […]
(§1) HCV replicon luciferase assays were developed to monitor the inhibitory effects of compounds described in the disclosure on HCV genotypes 1a and 1b viral replication. HUH-7 cells, constitutively expressing the HCV replicon, were grown in Dulbecco's Modified Eagle Media (DMEM) (Gibco-BRL) containing 10% Fetal calf serum (FCS) (Sigma) and 1 mg/mL G418 (Gibco-BRL). Compounds were serially diluted 3 folds in DMSO for a twenty-point titration and subsequently transferred to sterile 384-well tissue-culture treated plates (Corning cat #3571). The plates were then seeded with 50 μL of cells at a density of 3.0×10^3 cells/well in DMEM containing 4% FCS (final DMSO concentration at 0.5%). After 3 days incubation at 37° C., cells were analyzed for Renilla Luciferase activity using the EnduRen as substrate (Promega cat #E6485). The EnduRen substrate was diluted in DMEM and then added to the plates to a final concentration of 7.5 μM. The plates were incubated for 2 hrs at 37° C. and then read immediately for 30 seconds with Viewlux Imager (PerkinElmer) using a luminescence program. To assess cytotoxicity of compounds, CC50 values were generated by multiplexing the EnduRen-containing plates with Cell Titer-Blue (Promega, cat #G8082). Cell-Titer Blue (3 μL) was added to each well and incubated for 8 hrs at 37° C. The fluorescence signal from each well was read, with an excitation wavelength at 525/10 nm and an emission wavelength of 598/10 nm, using the Viewlux Imager.
(§2) The EC50 values for compounds were calculated by using a four-parameter logistic equation: y=A+((B−A)/(1+((C/x)^D))), where A and B denotes minimal and maximal % inhibition, respectively, C is the EC50, D is the hill slope and x represents compound concentration.

[2] = system: HCV genotype 1a (H77 strain) replicon in HUH-7 cells; assay: HCV replicon luciferase reporter assay, genotype 1a; format: cell-based; details: Hepatitis C virus, 72 h, HCV genotype 1a replicon, 3 days incubation, Renilla luciferase
Text: An HCV replicon whole cell system was established as described by Lohmann V, Korner F, Koch J, Herian U, Theilmann L, Bartenschlager R., Science 285(5424):110-3 (1999) and modified to introduce a luciferase reporter, as first described by Krieger et al (Krieger N, Lohmann V, and Bartenschlager R, J. Virol. 75(10):4614-4624 (2001)). CDNA encoding a humanized form of the Renilla luciferase gene and a linker sequence fused directly to the 3′-end of the luciferase gene were introduced into the replicon construct using an Asc1 restriction site located in core, directly upstream of the neomycin marker gene. The adaptive mutation at position 1179 (serine to isoleucine) was also introduced (Blight K J, Kolykhalov, A A, Rice, C M, Science 290(5498):1972-1974). A stable cell line constitutively expressing this HCV replicon construct was generated by first linearizing plasmid DNAs with ScaI. RNA transcripts were synthesized in vitro using the T7 MegaScript transcription kit (Ambion, Austin, Tex.) according to manufacturer's directions. In vitro transcripts of the cDNA were transfected into the human hepatoma cell line, HUH-7. […] Resulting cell lines were characterized for positive and negative strand RNA production and protein production over time.
A stable HCV replicon luciferase reporter cell line representing the genotype 1a H77 strain (Yanagi M, Purcell R H, Emerson S U, et al. Transcripts from a single full-length cDNA clone of hepatitis C virus are infectious when directly transfected into the liver of a chimpanzee. Proc Natl Acad Sci USA 1997; 94(16):8738-8743) was generated as described previously for the genotype 1b (Con1) replicon luciferase cell line. The replicon construct was modified by introducing mutations were introduced into the genes encoding the NS3 helicase domain (proline replaced by leucine at position 1496) and NS5A (serine to isoleucine at position 2204) to improve replication in cell culture.
as §1, §2

For COc1cnc(O[C@@H]2C[C@H]3C(=O)N[C@]4(C(=O)NS(=O)(=O)C5CC5)C[C@H]4/C=C\[C@H](C)CCC[C@@H](C)[C@H](NC(=O)OC(C)(C)C)C(=O)N3C2)c2cccc(Cl)c12 [Compound 5, tert-butyl (2R,6S,7R,11R,13aS,14aR,16aS,Z)-2-(5-chloro-4-methoxyisoquinolin-1-yloxy)-14a-(cyclopropylsulfonylcarbamoyl)-7,11-dimethyl-5,16-dioxo-1,2,3,5,6,7,8,9,10,11,13a,14,14a,15,16,16a-hexadecahydrocyclopropa[e]pyrrolo[1,2-a][1,4]diazacyclopentadecin-6-ylcarbamate], the EC50 ([1]; numeric values) was 1.2 nM and the EC50 ([2]; numeric values) was 0.41 nM.
COc1cnc(O[C@@H]2C[C@H]3C(=O)N[C@]4(C(=O)NS(=O)(=O)C5CC5)C[C@H]4/C=C\[C@@H](C)CCC[C@@H](C)[C@H](NC(=O)OC(C)(C)C(F)(F)F)C(=O)N3C2)c2ccccc12 [Compound 4, 1,1,1-trifluoro-2-methylpropan-2-yl (2R,6S,7R,11S,13aS,14aR,16aS,Z)-14a-(cyclopropylsulfonylcarbamoyl)-2-(4-methoxyisoquinolin-1-yloxy)-7,11-dimethyl-5,16-dioxo-1,2,3,5,6,7,8,9,10,11,13a,14,14a,15,16,16a-hexadecahydrocyclopropa[e]pyrrolo[1,2-a][1,4]diazacyclopentadecin-6-ylcarbamate] showed an EC50 ([1]; numeric values) of 2.8 nM and an EC50 ([2]; numeric values) of 4.9 nM.
For COc1ccc2ncc(O[C@@H]3C[C@H]4C(=O)N[C@]5(C(=O)NS(=O)(=O)C6CC6)C[C@H]5/C=C\[C@@H](C)CCC[C@@H](C)[C@H](NC(=O)OC(C)(C)C)C(=O)N4C3)nc2c1 [Compound 29, tert-butyl (2R,6S,7R,11S,13aS,14aR,16aS,Z)-14a-(cyclopropylsulfonylcarbamoyl)-2-(7-methoxyquinoxalin-2-yloxy)-7,11-dimethyl-5,16-dioxo-1,2,3,5,6,7,8,9,10,11,13a,14,14a,15,16,16a-hexadecahydrocyclopropa[e]pyrrolo[1,2-a][1,4]diazacyclopentadecin-6-ylcarbamate], the EC50 ([1]; range classes) was 5.01 to 68 nM and the EC50 ([2]; range classes) was 5.01 to 68 nM.
For COc1cnc(O[C@@H]2C[C@H]3C(=O)N[C@]4(C(=O)NS(=O)(=O)C5(C)CC5)C[C@H]4/C=C\[C@H](C)CCC[C@@H](C)[C@H](NC(=O)OC(C)(C)C(F)(F)F)C(=O)N3C2)c2cccc(Cl)c12 [Compound 25, 1,1,1-trifluoro-2-methylpropan-2-yl (2R,6S,7R,11R,13aS,14aR,16aS,Z)-2-(5-chloro-4-methoxyisoquinolin-1-yloxy)-7,11-dimethyl-14a-(1-methylcyclopropylsulfonylcarbamoyl)-5,16-dioxo-1,2,3,5,6,7,8,9,10,11,13a,14,14a,15,16,16a-hexadecahydrocyclopropa[e]pyrrolo[1,2-a][1,4]diazacyclopentadecin-6-ylcarbamate], the EC50 ([1]; range classes) was 0.2 to 1 nM and the EC50 ([2]; range classes) was 1.01 to 2 nM.
With COc1ccc2c(O[C@@H]3C[C@H]4C(=O)N[C@]5(C(=O)NS(=O)(=O)C6(C)CC6)C[C@H]5/C=C\[C@H](C)CCC[C@@H](C)[C@H](NC(=O)OC(C)(C)C(F)(F)F)C(=O)N4C3)ncc(OC)c2c1 [Compound 14, 1,1,1-trifluoro-2-methylpropan-2-yl (2R,6S,7R,11R,13aS,14aR,16aS,Z)-2-(4,6-dimethoxyisoquinolin-1-yloxy)-7,11-dimethyl-14a-(1-methylcyclopropylsulfonylcarbamoyl)-5,16-dioxo-1,2,3,5,6,7,8,9,10,11,13a,14,14a,15,16,16a-hexadecahydrocyclopropa[e]pyrrolo[1,2-a][1,4]diazacyclopentadecin-6-ylcarbamate] the EC50 ([1]; range classes) was 1.01 to 2 nM and the EC50 ([2]; range classes) was 2.01 to 5 nM.
With COc1ccc2nc(O[C@@H]3C[C@H]4C(=O)N[C@]5(C(=O)NS(=O)(=O)C6CC6)C[C@H]5/C=C\[C@H](C)CCC[C@@H](C)[C@H](NC(=O)OC(C)(C)C)C(=O)N4C3)cnc2c1 [Compound 26, tert-butyl (2R,6S,7R,11R,13aS,14aR,16aS,Z)-14a-(cyclopropylsulfonylcarbamoyl)-2-(6-methoxyquinoxalin-2-yloxy)-7,11-dimethyl-5,16-dioxo-1,2,3,5,6,7,8,9,10,11,13a,14,14a,15,16,16a-hexadecahydrocyclopropa[e]pyrrolo[1,2-a][1,4]diazacyclopentadecin-6-ylcarbamate] the EC50 ([1]; numeric values) was 86.5 nM and the EC50 ([2]; numeric values) was 215 nM.
COc1ccc2c(O[C@@H]3C[C@H]4C(=O)N[C@]5(C(=O)NS(=O)(=O)C6CC6)C[C@H]5/C=C\[C@H](C)CCC[C@@H](C)[C@H](NC(=O)OC(C)(C)C(F)(F)F)C(=O)N4C3)ncc(OC)c2c1 [Compound 22, 1,1,1-trifluoro-2-methylpropan-2-yl (2R,6S,7R,11R,13aS,14aR,16aS,Z)-14a-(cyclopropylsulfonylcarbamoyl)-2-(4,6-dimethoxyisoquinolin-1-yloxy)-7,11-dimethyl-5,16-dioxo-1,2,3,5,6,7,8,9,10,11,13a,14,14a,15,16,16a-hexadecahydrocyclopropa[e]pyrrolo[1,2-a][1,4]diazacyclopentadecin-6-ylcarbamate] showed an EC50 ([1]; range classes) of 0.2 to 1 nM and an EC50 ([2]; range classes) of 1.01 to 2 nM.
With COc1ccc2ncc(O[C@@H]3C[C@H]4C(=O)N[C@]5(C(=O)NS(=O)(=O)C6CC6)C[C@H]5/C=C\[C@@H](C)CCC[C@@H](C)[C@H](NC(=O)OC(C)(C)C(F)(F)F)C(=O)N4C3)nc2c1 [Compound 31, 1,1,1-trifluoro-2-methylpropan-2-yl (2R,6S,7R,11S,13aS,14aR,16aS,Z)-14a-(cyclopropylsulfonylcarbamoyl)-2-(7-methoxyquinoxalin-2-yloxy)-7,11-dimethyl-5,16-dioxo-1,2,3,5,6,7,8,9,10,11,13a,14,14a,15,16,16a-hexadecahydrocyclopropa[e]pyrrolo[1,2-a][1,4]diazacyclopentadecin-6-ylcarbamate] the EC50 ([1]; range classes) was 5.01 to 68 nM and the EC50 ([2]; range classes) was 5.01 to 68 nM.
Compound CCOc1cnc(O[C@@H]2C[C@H]3C(=O)N[C@]4(C(=O)NS(=O)(=O)C5(C)CC5)C[C@H]4/C=C\[C@H](C)CCC[C@@H](C)[C@H](NC(=O)OC(C)(C)C(F)(F)F)C(=O)N3C2)c2ccccc12 [Compound 19, 1,1,1-trifluoro-2-methylpropan-2-yl (2R,6S,7R,11R,13aS,14aR,16aS,Z)-2-(4-ethoxyisoquinolin-1-yloxy)-7,11-dimethyl-14a-(1-methylcyclopropylsulfonylcarbamoyl)-5,16-dioxo-1,2,3,5,6,7,8,9,10,11,13a,14,14a,15,16,16a-hexadecahydrocyclopropa[e]pyrrolo[1,2-a][1,4]diazacyclopentadecin-6-ylcarbamate] has an EC50 ([1]; range classes) of 1.01 to 2 nM and an EC50 ([2]; range classes) of 2.01 to 5 nM.
